Counter-ions that a name gives are not always drawn. Like-named read-outs stand apart in the source and are kept apart here.
How the values were obtained:
E. faecium ATCC 35667 = test: In vitro MIC, agar dilution; assay type: cell-based; conditions: Enterococcus faecium, ATCC35667, read-out: minimum inhibitory concentration (MIC)
Description: (§1) The compounds of the invention were evaluated against several β-lactamresistant (for example methicillin-resistant, vancomycin resistant, and/or ampicillin-resistant) bacteria strains by determining the minimum inhibitory concentration (MIC, μg/ml) of each compound with respect to each strain. The MIC, the lowest concentration of antibiotic which inhibits growth of the test organism, was determined by the agar dilution method.
(§2) To determine the MIC for bacterial isolates, the test compound was incorporated in a series of two-fold dilutions into liquified Mueller-Hinton agar. Upon solidification, a number of different bacterial strains were spot inoculated with a replicating device onto the agar surface.
(§3) Aliquots of antimicrobial agents were prepared in phosphate buffered saline (PBS) at pH 7.2. Tween 20 or DMSO was used as a solubilizing vehicle as needed. Standard methods of vortexing, sonicating and gentle heat were used to facilitate solubilizing the test agent. […] A 1.28 mg/mL stock solution was used with a subsequent highest working concentration of 128 μg/mL. Serial two-fold dilutions were done through ≤0.25 μg/mL. Each drug level was tested in duplicate. Two-fold drug dilutions were done in sterile 50 mL tubes with a final drug volume of 5 mL. Upon the addition of 45 mL of molten agar, a 10-fold dilution resulted. Two, 25 mL. plates were then poured into 15×150 mm square Petri plates with grids and allowed to harden.
(§4) A control plate with a reference drug, either cefotaxime, vancomycin or imipenem, was used as the positive growth control. Stock concentrations of reference antibiotics were prepared and frozen at -80° C. […] All test plates were used within 24 hours of preparation.
(§5) Satisfactory results were obtained where the inoculum contained about 10^4 colony forming units (cfu)±0.5 logs. Starting with pure cultures of the test isolates on agar plates, a few isolated colonies were transferred to a tube of nutrient broth and allowed to grow 4-6 hours at 35-36° C. to reach log-phase growth. Dropwise addition of the broth culture to PBS was done to match a 0.5 McFarland turbidity standard equal to 10^8 cfu/mL. This was further diluted ten-fold in PBS to reach a working inoculum concentration of 10^7 cfu/mL. When 1 μL of the working inoculum was applied to the agar surface a concentration of about 10^4 cfu per spot was obtained.
(§6) Disposable sterile 1 μL loops were used to inoculate test plates, with each isolate in a designated grid on the agar plate. An alternate method of inoculation involved the use of a replica plater, a device with 48 steel pins allowing the simultaneous inoculation of multiple isolates. After the spots had dried, the plates were incubated at 35-36° C. for 16-20 hours. Endpoints were assessed as the minimum inhibitory concentration (MIC) of antimicrobial agent.

E. faecalis VanB(Van^R) = test: In vitro MIC, agar dilution; assay type: cell-based; conditions: Enterococcus faecalis, read-out: minimum inhibitory concentration (MIC)
Description: as §1, §2, §3, §4, §5, §6

E. faecium VanA(Van^R) = test: In vitro MIC, agar dilution; assay type: cell-based; conditions: Enterococcus faecium, read-out: minimum inhibitory concentration (MIC)
Description: as §1, §2, §3, §4, §5, §6

E. faecalis ATCC 29212 = test: In vitro MIC, agar dilution; assay type: cell-based; conditions: Enterococcus faecalis, ATCC29212, read-out: minimum inhibitory concentration (MIC)
Description: as §1, §2, §3, §4, §5, §6

P. aeruginosa ATCC 27853 = test: In vitro MIC, agar dilution; assay type: cell-based; conditions: Pseudomonas aeruginosa, ATCC27853, read-out: minimum inhibitory concentration (MIC)
Description: as §1, §2, §3, §4, §5, §6

S. aureus ATCC 29213 = test: In vitro MIC, agar dilution; assay type: cell-based; conditions: Staphylococcus aureus, ATCC29213, read-out: minimum inhibitory concentration (MIC)
Description: as §1, §2, §3, §4, §5, §6

[1] = system: S. haemolyticus 05(Meth^R); test: In vitro MIC, agar dilution; assay type: cell-based; conditions: Staphylococcus haemolyticus, read-out: minimum inhibitory concentration (MIC)
Description: as §1, §2, §3, §4, §5, §6

E. faecium A491(Amp^R) = test: In vitro MIC, agar dilution; assay type: cell-based; conditions: Enterococcus faecium, read-out: minimum inhibitory concentration (MIC)
Description: as §1, §2, §3, §4, §5, §6

[2] = system: S. aureus Spain #356(Meth^R); test: In vitro MIC, agar dilution; assay type: cell-based; conditions: Staphylococcus aureus, read-out: minimum inhibitory concentration (MIC)
Description: as §1, §2, §3, §4, §5, §6

E. coli ATCC 25992 = test: In vitro MIC, agar dilution; assay type: cell-based; conditions: Escherichia coli, ATCC25992, read-out: minimum inhibitory concentration (MIC)
Description: as §1, §2, §3, §4, §5, §6

[3] = system: S. aureus 76(Meth^R)(lac^+); test: In vitro MIC, agar dilution; assay type: cell-based; conditions: Staphylococcus aureus, read-out: minimum inhibitory concentration (MIC)
Description: as §1, §2, §3, §4, §5, §6

[4] = system: S. aureus ATCC 33593(Meth^R); test: In vitro MIC, agar dilution; assay type: cell-based; conditions: Staphylococcus aureus, ATCC33593, read-out: minimum inhibitory concentration (MIC)
Description: as §1, §2, §3, §4, §5, §6

[5] = system: S. aureus ATCC 13709(Meth^S); test: In vitro MIC, agar dilution; assay type: cell-based; conditions: Staphylococcus aureus, ATCC13709, S. aureus ATCC 13709(Meth^S); read-out: minimum inhibitory concentration (MIC)
Description: as §1, §2, §3, §4, §5, §6

[6] = system: S. aureus PC1(Meth^S)(lac^+); test: In vitro MIC, agar dilution; assay type: cell-based; conditions: Staphylococcus aureus, read-out: minimum inhibitory concentration (MIC)
Description: as §1, §2, §3, §4, §5, §6

[7] = system: S. aureus Col(Meth^R)(lac^-); test: In vitro MIC, agar dilution; assay type: cell-based; conditions: Staphylococcus aureus, read-out: minimum inhibitory concentration (MIC)
Description: as §1, §2, §3, §4, §5, §6
The S. aureus Col strain is a high-level PBP2a producer, whereas S. aureus Col 8A, its isogenic partner, lacks PBP2a.

[8] = system: S. aureus strain ATCC 13709 (methicillin-susceptible); test: Murine model for lethal bacteremic peritonitis; assay type: in vivo, female Swiss-Webster mice; conditions: Staphylococcus aureus, 72 h
Description: Groups of 5 female Swiss-Webster mice (Simonsen, Gilroy, Calif.) each are challenged by the intraperitoneal (IP) route with tenfold increments of a bacterial inoculum. This permits calculation of the mean lethal dose (LD50) and the LD100. For preliminary evaluation of a new antibiotic, mice are challenged IP with an LD100 titer of bacteria. In two equal doses administered at the time of bacterial challenge and 2 hours later, groups of 10 mice each are treated subcutaneously with two-fold increments of the test drug and an antibiotic of known efficacy in mice and humans (i.e., positive control). Mice are observed for 72 h. Those alive at 72 h are considered long term survivors. The total drug dose in mg/kg that protects 50% of mice in a group from death is termed the mean protective dose (PD50). PD50 s are similarly determined for several pathogens. The quantitative endpoints for the new drug are then compared with those obtained with reference antibiotics.
Six ten-fold dilutions of inoculum suspended in 0.5 mL of sterilized 7% hog gastric mucin (Sigma) are injected IP in groups of 5 mice each. A control group of 5 mice receive mucin alone. Mice are observed for 72 h. Those alive at 72 h are considered long term survivors. The mean lethal dose (LD50) and 100% lethal dose (LD100) are determined by the probit test.
For antibiotic efficacy studies, mice are challenged IP with bacterial titers that will afford an LD100 for the test strain. In two equal doses administered at the time of bacterial challenge and 2 hours later, groups of 10 mice each are treated by the subcutaneous route (SC) with twofold increments of the test antibiotic; another group is treated similarly with a reference antibiotic of known efficacy in animals and man. Drug doses can range from 0.01 to 512 mg/kg. If the drug is poorly soluble, Tween 20 or propylene glycol will be employed to solubilize the drug. Animals are observed for 72 h. The 50% protective dose (PD50) is calculated in mg/kg by the probit method. The PD50 is the same as the 50% effective dose (ED50) and the 50% curative dose (CD50). Samples of blood from the hearts of all animals that die and from half the mice that survive are cultured on brain-heart infusion agar. Animals that received a protective dosage of the test drug will be alive at 72 h, although they may appear moderately ill to very ill during the observation period. […] Most of these mice will die within 6 to 48 h. Those alive at 72 h will be considered long term survivors.
(Compound numbers correspond to those in MIC tables; data reported for challenge with methicillin-susceptible S. aureus strain ATCC 13709.)

[9] = ATCC13709, sc, read-out: Survivors

SMILES	MIC (E. faecium ATCC 35667)	MIC (E. faecalis VanB(Van^R))	MIC (E. faecium VanA(Van^R))	MIC (E. faecalis ATCC 29212)	MIC (P. aeruginosa ATCC 27853)	MIC (S. aureus ATCC 29213)	MIC [1]	MIC (E. faecium A491(Amp^R))	MIC [2]	MIC (E. coli ATCC 25992)	MIC [3]	MIC [4]	MIC [5]	MIC [6]	MIC [7]	also measured
N=C(N)SCc1nnsc1SC1=C(C(=O)O)N2C(=O)[C@@H](NC(=O)/C(=N\O)c3csc(N)n3)[C@H]2SC1 [Cmpd 4, (7R)-7-[(Z)-2-(aminothiazol-4-yl)-2-(hydroxyimino)acetamido]-3-(4-isothioureidomethyl-1,2,3-thiadiazol-5-ylthio)-3-cephem-4-carboxylate, trifluoroacetic acid salt]	2 µg/mL	4 µg/mL	4 µg/mL	0.5 µg/mL	> 32 µg/mL	0.25 µg/mL	8 µg/mL	> 32 µg/mL	8 µg/mL	4 µg/mL	8 µg/mL	4 µg/mL	0.25 µg/mL	0.25 µg/mL	8 µg/mL	–
N=C(N)SCc1cnccc1SC1=C(C(=O)O)N2C(=O)[C@@H](NC(=O)/C(=N\OC3CCCC3)c3csc(N)n3)[C@H]2SC1 [Cmpd 8, (7R)-7-[(Z)-2-(aminothiazol-4-yl)-2-(cyclopentyloxyimino)acetamido]-3-(3-isothioureidomethylpyrid-4-ylthio)-3-cephem-4-carboxylate, trifluoroacetic acid salt]	2 µg/mL	0.5 µg/mL	8 µg/mL	0.5 µg/mL	> 32 µg/mL	1 µg/mL	4 µg/mL	32 µg/mL	4 µg/mL	2 µg/mL	4 µg/mL	4 µg/mL	1 µg/mL	1 µg/mL	2 µg/mL	–
NCCSCc1cnccc1SC1=C(C(=O)O)N2C(=O)[C@@H](NC(=O)/C(=N\OC3CCCC3)c3csc(N)n3)[C@H]2SC1 [Cmpd 13, (7R)-7-[(Z)-2-(aminothiazol-4-yl)-2-(cyclopentyloxyimino)acetamido]-3-(3-aminoethylthiomethylpyrid-4-ylthio)-3-cephem-4-carboxylate, trifluoroacetic acid salt]	4 µg/mL	2 µg/mL	8 µg/mL	1 µg/mL	> 32 µg/mL	2 µg/mL	8 µg/mL	> 32 µg/mL	8 µg/mL	8 µg/mL	8 µg/mL	8 µg/mL	2 µg/mL	2 µg/mL	4 µg/mL	–
CNCC(=O)NCCSCc1cnccc1SC1=C(C(=O)O)N2C(=O)[C@@H](NC(=O)/C(=N\O)c3csc(N)n3)[C@H]2SC1 [Cmpd 18, (7R)-7-[(Z)-2-(aminothiazol-4-yl)-2-(hydroxyimino)acetamido]-3-[3-(N-methylglycyl)aminoethylthiomethylpyrid-4-ylthio]-3-cephem-4-carboxylate, trifluoroacetic acid salt]	2 µg/mL	0.5 µg/mL	2 µg/mL	0.25 µg/mL	> 32 µg/mL	1 µg/mL	8 µg/mL	> 32 µg/mL	8 µg/mL	8 µg/mL	8 µg/mL	4 µg/mL	1 µg/mL	1 µg/mL	–	responders at 0.3125 mg/kg ([8]; ATCC13709, Dose 0.3125 mg/kg, SC, read-out: Survivors): 30%; responders at 0.625 mg/kg ([8]; ATCC13709, Dose 0.625 mg/kg, SC, read-out: Survivors): 20%; responders at 1.25 mg/kg ([8]; ATCC13709, Dose 1.25 mg/kg, SC, read-out: Survivors (converted)): 20%; responders at 2.5 mg/kg ([8]; ATCC13709, Dose 2.5 mg/kg, SC, read-out: Survivors): 20%; responders at 5 mg/kg ([8]; ATCC13709, Dose 5 mg/kg, SC, read-out: Survivors): 60%; ED50 ([8]; ATCC13709, SC, two equal doses, IP challenge, read-out: ED50): 4.44 mg/kg
CC(C)(CN)SCc1cnccc1SC1=C(C(=O)O)N2C(=O)[C@@H](NC(=O)/C(=N\O)c3csc(N)n3)[C@H]2SC1 [Cmpd 19, (7R)-7-[(Z)-2-(aminothiazol-4-yl)-2-(hydroxyimino)acetamido]-3-[3-(2-amino-1,1-dimethylethylthiomethyl)pyrid-4-ylthio]-3-cephem-4-carboxylate, trifluoroacetic acid salt]	1 µg/mL	0.5 µg/mL	2 µg/mL	1 µg/mL	> 32 µg/mL	0.5 µg/mL	16 µg/mL	> 32 µg/mL	8 µg/mL	8 µg/mL	8 µg/mL	8 µg/mL	0.5 µg/mL	0.5 µg/mL	8 µg/mL	–
CN[C@H](CC(C)C)C(=O)N[C@H]1C(=O)N[C@@H](CC(N)=O)C(=O)N[C@H]2C(=O)N[C@H]3C(=O)N[C@H](C(=O)N[C@H](C(=O)O)c4cc(O)cc(O)c4-c4cc3ccc4O)[C@H](O)c3ccc(c(Cl)c3)Oc3cc2cc(c3O[C@@H]2O[C@H](CO)[C@@H](O)[C@H](O)[C@H]2O[C@H]2C[C@](C)(N)[C@H](O)[C@H](C)O2)Oc2ccc(cc2Cl)[C@H]1O [Vancomycin, vancomycin, reference compound]	–	–	–	–	–	–	–	–	–	–	–	–	–	–	–	ED50 ([8]; ATCC13709, sc): 1.94 mg/kg; responders at 0.625 mg/kg [8, 9]: 20%; responders at 1.25 mg/kg [8, 9]: 20%; responders at 2.5 mg/kg [8, 9]: 40%; responders at 5 mg/kg [8, 9]: 100%; responders at 10 mg/kg [8, 9]: 100%

Source: patent US6087355A, “Cephalosporin antibiotics” (Microcide Pharmaceuticals, Inc., priority 1996, dated 2000)
